Data from article PMC11060137, “A Phase I Study of KIN-3248, an Irreversible Small-molecule Pan-FGFR Inhibitor, in Patients with Advanced FGFR2/3-driven Solid Tumors” (Cancer Research Communications, 2024).
Where two headings read alike, the source gives them in different places.

Assays:
[1] = system: patients with advanced solid tumors harboring FGFR2 and/or FGFR3 gene alterations
Experimental: The study was divided into two parts. […] The secondary objectives included antitumor activity in Part A, determination of pharmacokinetics and pharmacodynamics.
Dose level 1 was started at 5 mg oral daily, and patients were escalated on study to 50 mg daily. On the basis of ongoing efficacy, toxicity, and pharmacokinetic analysis, a planned amendment added additional cohorts up to 80 mg orally daily to define the MTD/RP2D. […] One cycle was 28 days of continuous dosing. Intrapatient dose escalation after safely tolerating two cycles was allowed if per protocol criteria were met. Patients continued therapy until evidence of disease progression, intolerance or unacceptable toxicity, withdrawal of consent, investigator decision, sponsor decision, or death.
Patients were evaluated with medical history, physical examinations, and clinical laboratory on days 1, 8, 15, and 22 of cycle 1; days 1 and 15 from cycle 2 through cycle 5; and day 1 of each subsequent cycle. […] Except for hyperphosphatemia, adverse events (AE) were graded according to the NCI-CTCAE (Common Terminology Criteria for Adverse Events) Version 5.0 at each study visit and for approximately 30 days following end of treatment.
The primary endpoints for the overall study, included: the incidence of DLTs, incidence of AEs, treatment-emergent AEs (TEAE), and treatment-related AEs (TRAE).

[2] = system: advanced solid tumors harboring FGFR2 and/or FGFR3 gene alterations; assay: Antitumor activity by RECIST v1.1; assay type: in vivo, human
ctDNA = ctDNA molecular response (change in mean VAF, PredicineATLAS); assay type: in vivo, human; conditions: after 1 cycle; 26 patients evaluable for RECIST and ctDNA response
Excerpt: Whole blood was collected into Streck Cell Free BCT DNA tubes on cycle 1 day 1 and cycle 2 day 1. Samples were processed to extract plasma followed by cell-free DNA isolation, which was then interrogated by PredicineATLAS, a 600 gene assay able to detect SNVs, indels, rearrangements, fusions, and copy-number gains, as described previously ([19]).
For each patient with available paired ctDNA, the change in ctDNA after one cycle of treatment was summarized by calculating the mean variant allele frequency (VAF) of all somatic mutations at each timepoint and then taking the ratio as follows: [(mean VAF^C2D1/mean VAF^C1D1) −1]*100 ([20]). For somatic mutations detected in only one sample of a patient-matched pair, the VAF was imputed to be zero for calculation purposes, when the mutation was not detected. Change in match pair ctDNA was correlated both categorically with RECIST v 1.1 response and continuously (Pearson R) with the best % change in target lesions. Biomarker analyses were conducted using R [R Core Team 2023 ([21])].

[3] = system: FGFR2/3-driven cholangiocarcinoma, gastric, and bladder cancer xenograft models; design: method as in PMID 38267212; conditions: cited from earlier work
serum phosphate = assay: Serum phosphate as pharmacodynamic biomarker; assay type: in vivo, human
Experimental: As FGFR1 is expressed in renal tubules and pharmacologic inhibition of FGFR1 leads to phosphate retention ([18]), serum phosphate levels were measured at each study visit as a pharmacodynamic biomarker. Paired pretreatment and on-treatment biopsies (cycle 1 day 8 to day 21) were collected and analyzed for phospho-ERK and total ERK by IHC. DUSP6 gene expression was measured in tumor samples using RNA ISH (RNAscope; probes from Advanced Cell Diagnostics).

[4] = system: molecular break (N549H) resistance mutation; design: method as in PMID 38267212; conditions: cited from earlier work
wild-type FGFR = system: wild-type FGFR; design: method as in PMID 38267212; conditions: cited from earlier work
[5] = Plasma pharmacokinetics in patients (LC/MS-MS, noncompartmental); assay type: in vivo, human
Experimental: Blood for pharmacokinetic analysis was collected C1D1 (pretreatment and postdose at 0.25, 0.5, 1, 2, 4, 6, 8, 10 hours), […] (pretreatment, postdose at 1 and 2 hours), C1D8 and day 15 (pretreatment, postdose 1 hour), C2D1 (pretreatment, postdose at 0.25, 0.5, 1, 2, 4, 6, 8, 10 hours), and pretreatment and 1 hour postdose on day 1 of C3, C4 and cycle 5. KIN-3248 concentration was determined at each timepoint by an established and validated LC/MS-MS assay.

[6] = system: gatekeeper (V564F) resistance mutation; design: method as in PMID 38267212; conditions: cited from earlier work

## C=CC(=O)N1C[C@@H](n2nc(C#Cc3c(F)cc4c(ncn4C4CC4)c3F)c(C(N)=O)c2NC)C[C@@H]1COC [KIN-3248]
[1]; CTCAE (V5) Grade 3, N = 54
  TEAE Psychiatric disorders, n (%): 0
  TEAE Respiratory, thoracic, and mediastinal disorders, n (%): 1 (1.9%)
  TEAE Skin and subcutaneous tissue disorders, n (%): 0
  TEAE Stomatitis, n (%): 0
  TEAE Vascular disorders, n (%): 3 (5.6%)
[1]; CTCAE (V5) Grade 4–5, N = 54
  Patient with any TEAE, n (%): 7 (13.0%)
  TEAE Alanine aminotransferase increased, n (%): 0
  TEAE Anemia, n (%): 0
  TEAE Aspartate aminotransferase increased, n (%): 0
  TEAE Blood and lymphatic system disorders, n (%): 0
  TEAE Blood creatinine increased, n (%): 0
  TEAE Constipation, n (%): 0
  TEAE Decreased appetite, n (%): 0
  TEAE Diarrhea, n (%): 0
  TEAE Dry mouth, n (%): 0
  TEAE Eye disorders, n (%): 0
  TEAE Fatigue, n (%): 0
  TEAE Gastrointestinal disorders, n (%): 0
  TEAE General disorders and administration site conditions, n (%): 1 (1.9%)
  TEAE Hypercalcemia, n (%): 0
  TEAE Hyperphosphatemia, n (%): 0
  TEAE Infections and infestations, n (%): 2 (3.7%)
  TEAE Investigations, n (%): 2 (3.7%)
  TEAE Metabolism and nutrition disorders, n (%): 0
  TEAE Musculoskeletal and connective tissue disorders, n (%): 0
  TEAE Nausea, n (%): 0
  TEAE Nervous system disorders, n (%): 1 (1.9%)
  TEAE Psychiatric disorders, n (%): 0
  TEAE Respiratory, thoracic, and mediastinal disorders, n (%): 1 (1.9%)
  TEAE Skin and subcutaneous tissue disorders, n (%): 0
  TEAE Stomatitis, n (%): 0
  TEAE Vascular disorders, n (%): 0
[1]; doses up to 50 mg orally daily
  MTD: not reached
[1]; in vivo
  Treatment-related deaths: no treatment-related deaths
[1]; only event reported in more than 1 patient
  Treatment-related grade 3 hyperphosphatasemia: 14.8%
[1]; three related to progressive disease, one to a cardiovascular accident
  TEAE deaths: Four
[2]; 3 patients
  Best response in pretreated ICC patients with FGFR2 kinase domain resistance mutations: progressive disease
[2]; 5 patients
  Response in FGFR2/3 fusion patients: 20%
[2]; 54 patients
  ORR: 9.25%
[2]; of 4 patients, gastric cancer
  Responders among FGFR inhibitor pretreated patients with acquired FGFR resistance mutations in ctDNA: 1
[2]; of 23 patients
  Confirmed responders among FGFR inhibitor experienced patients: 1
[2]; of 31 patients
  Confirmed responders among FGFR inhibitor naïve patients: 3
  Responders among FGFR inhibitor naïve patients: 4
[2]; of 54 patients enrolled
  Patients achieving CR: none
  Patients achieving PR: 5
[2]; total population
  DCR: 46%
[2]; twenty patients
  Patients achieving SD: 37.0%
ctDNA
  Patients with greater than 50% decrease in mean VAF: Six
[3]
  Tumor inhibition: dose-dependent tumor inhibition
Serum phosphate; 54 participants
  Serum phosphate versus dose and exposure: increased with dose and exposure
Serum phosphate; all dose levels
  Onset of serum phosphate elevations: within the f irst week
[4]
  IC50: low nanomolar
wild-type FGFR
  IC50: low nanomolar
[5]; 5-50 mg
  Exposure versus dose: generally dose proportional
[5]; exploratory analysis
  Concentrations in Asian (China, Taiwan, Korean) versus non-Asian patients: not a qualitative difference
[5]; first two cycles
  Accumulation: not observed
[5]; human, in vivo
  Apparent clearance (CL/F): 23,300-32,100 mL/hour
  Steady-state geometric mean half-life (t1/2): approximately 4 hours
  Volume of distribution (V/F): 135,000-200,000 mL
[6]
  IC50: low nanomolar
